Columns and labels:
[1] = system: CCl4-induced liver cirrhosis in a mouse model; assay: HE staining pathological examination of liver tissue in CCl4-induced liver cirrhosis model mice; assay type: in vivo, C57BL/6N mice; conditions: sorafenib 25 mg/kg intragastrically, 20 days, vs model control group
From the text: (§1) 70 SPF male C57BL/6N mice, 6-8 weeks old and 16-20 g body weight, were purchased from Beijing Huafukang Experimental Animal Technology Co., Ltd. (production license number: SOCK (Jing) 2019-0008). According to body weight, they were randomly divided into 7 groups (n=10): blank control group, model group, positive control group, Cu-1 low dose group, Cu-1 high dose group, Cu-2 low dose group, Cu-2 high dose group.
(§2) Except for the blank control group, liver cirrhosis model of mice in other groups was prepared by the treatment of carbon tetrachloride (CCl4)-induction method. The modeling protocoal was as follows: (1) Each mouse was intraperitoneally injected with 10% CCl4 (diluted with olive oil) at 7 μL/g body weight, twice a week for a total of 8 weeks; mice of the blank control group were injected intraperitoneally with the same amount of olive oil solvent. (2) from the 6th week, two mice were selected and killed 48 hours after the last injection every week. The appearance of the liver was observed. After the appearance was in line with the characteristics of cirrhosis (the 8th week), the liver tissue was fixed with formalin. HE staining and Masson staining were used to evaluate the model of cirrhosis. […]

[2] = system: CCl4-induced liver cirrhosis in a mouse model; assay: Serum biochemical testing (ALT, AST, TBil, MAO, ALB) in CCl4-induced liver cirrhosis model mice; assay type: in vivo, C57BL/6N mice; conditions: sorafenib 25 mg/kg intragastrically, once a day for 20 days
From the text: as §1, §2

Question: With `CNC(=O)c1cc(Oc2ccc(NC(=O)Nc3ccc(Cl)c(C(F)(F)F)c3)cc2)ccn1` [Sorafenib] as the compound, how does the “HE staining: liver pathology” value [1] read?
Answer: significant reduction of liver damages

Question: And the “serum ALT activity” value ([2]; model group 188.5±4.9, P<0.01)?
Answer: 42.8±5.4 U/L

Question: And the “serum AST activity” value ([2]; model group 192.0±11.3, P<0.05)?
Answer: 165.5±11.6 U/L

From patent publication US20230045685A1, “COPPER CLUSTERS, COMPOSITION, AND METHOD FOR TREATMENT OF LIVER CIRRHOSIS” (Wuhan Vast Conduct Science Foundation CO., LTD., priority 2020, published 2023)
